Reference: article PMC11233931, “Remodeling tumor‐associated macrophage for anti‐cancer effects by rational design of irreversible inhibition of mitogen‐activated protein kinase‐activated protein kinase 2” (MedComm, 2024)

Columns and labels:
[1] = target: T1, 380 human recombinant protein kinases (Homo sapiens, UniProt Q9H2K8); test: Eurofins kinase selectivity profile against 380 other human recombinant kinases (Table S2); type: biochemical; conditions: TAO3(h), read-out: Inhibition rate (%)
T1 construct: purchased Eurofins (Celle Lévescault)
T1 sequence (Q9H2K8 1-898): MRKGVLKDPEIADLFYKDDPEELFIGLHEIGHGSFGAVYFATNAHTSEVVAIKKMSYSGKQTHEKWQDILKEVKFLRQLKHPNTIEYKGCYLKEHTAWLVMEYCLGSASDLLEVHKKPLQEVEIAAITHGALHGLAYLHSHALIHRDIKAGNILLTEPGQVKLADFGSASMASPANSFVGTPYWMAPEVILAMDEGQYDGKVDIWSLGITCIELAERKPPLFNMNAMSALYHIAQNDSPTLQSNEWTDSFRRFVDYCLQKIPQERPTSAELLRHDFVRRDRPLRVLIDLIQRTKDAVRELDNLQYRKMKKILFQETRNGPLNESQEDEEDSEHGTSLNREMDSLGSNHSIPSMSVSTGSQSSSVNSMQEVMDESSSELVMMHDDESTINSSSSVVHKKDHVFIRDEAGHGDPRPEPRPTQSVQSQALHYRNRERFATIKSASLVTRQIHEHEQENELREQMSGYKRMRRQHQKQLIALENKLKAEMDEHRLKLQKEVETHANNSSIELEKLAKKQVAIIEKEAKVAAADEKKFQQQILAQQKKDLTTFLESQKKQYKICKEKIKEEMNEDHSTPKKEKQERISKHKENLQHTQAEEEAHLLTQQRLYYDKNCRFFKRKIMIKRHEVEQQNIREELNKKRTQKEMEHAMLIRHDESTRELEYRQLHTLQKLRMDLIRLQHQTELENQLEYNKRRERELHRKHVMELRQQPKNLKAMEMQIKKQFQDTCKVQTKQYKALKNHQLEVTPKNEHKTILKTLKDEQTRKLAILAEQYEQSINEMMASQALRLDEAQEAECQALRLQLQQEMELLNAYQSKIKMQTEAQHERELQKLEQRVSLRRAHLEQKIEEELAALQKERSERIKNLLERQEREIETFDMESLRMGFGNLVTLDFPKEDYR
In short: (§1)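 Profiling against 380 human recombinant kinases carried out by Eurofins at various compound concentrations.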

[2] = target: T2, 380 human recombinant protein kinases (Homo sapiens, UniProt Q9UL54); test: as above; type: biochemical; conditions: TAO2(h), read-out: Inhibition rate (%)
T2 construct: purchased Eurofins (Celle Lévescault)
T2 sequence (Q9UL54 1-1235): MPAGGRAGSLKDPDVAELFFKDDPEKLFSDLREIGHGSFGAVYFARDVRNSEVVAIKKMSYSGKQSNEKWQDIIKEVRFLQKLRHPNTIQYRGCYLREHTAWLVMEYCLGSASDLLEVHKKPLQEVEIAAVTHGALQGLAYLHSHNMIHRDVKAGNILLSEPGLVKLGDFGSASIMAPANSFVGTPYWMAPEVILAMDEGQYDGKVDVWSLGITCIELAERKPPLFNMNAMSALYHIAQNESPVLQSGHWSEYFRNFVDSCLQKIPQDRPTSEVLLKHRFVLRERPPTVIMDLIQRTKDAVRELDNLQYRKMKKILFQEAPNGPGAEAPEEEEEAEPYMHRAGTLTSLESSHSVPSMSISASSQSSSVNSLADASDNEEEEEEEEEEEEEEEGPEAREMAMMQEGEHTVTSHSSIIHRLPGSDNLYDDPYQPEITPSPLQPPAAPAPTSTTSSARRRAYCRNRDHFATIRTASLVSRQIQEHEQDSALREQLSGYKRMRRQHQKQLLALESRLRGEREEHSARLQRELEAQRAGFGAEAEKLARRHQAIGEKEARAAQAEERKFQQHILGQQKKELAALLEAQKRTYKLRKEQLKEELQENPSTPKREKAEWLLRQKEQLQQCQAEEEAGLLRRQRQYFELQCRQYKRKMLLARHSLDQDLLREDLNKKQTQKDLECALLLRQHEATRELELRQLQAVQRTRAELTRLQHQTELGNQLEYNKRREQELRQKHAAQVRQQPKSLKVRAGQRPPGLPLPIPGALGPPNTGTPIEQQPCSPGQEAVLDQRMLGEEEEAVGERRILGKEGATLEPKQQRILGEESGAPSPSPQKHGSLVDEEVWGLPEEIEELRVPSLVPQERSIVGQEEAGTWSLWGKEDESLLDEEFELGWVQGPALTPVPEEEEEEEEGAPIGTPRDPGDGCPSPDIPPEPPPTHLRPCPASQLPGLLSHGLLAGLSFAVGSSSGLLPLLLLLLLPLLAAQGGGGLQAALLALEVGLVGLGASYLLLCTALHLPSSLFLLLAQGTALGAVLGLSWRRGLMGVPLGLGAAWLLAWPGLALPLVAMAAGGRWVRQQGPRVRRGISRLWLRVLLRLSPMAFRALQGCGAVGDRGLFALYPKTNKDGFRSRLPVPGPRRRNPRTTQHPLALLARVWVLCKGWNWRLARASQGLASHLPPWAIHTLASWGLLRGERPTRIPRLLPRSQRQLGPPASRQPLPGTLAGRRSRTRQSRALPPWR
In short: as §1

`C=CC(=O)Nc1cc(-c2cc(-c3cc4c([nH]3)CCNC4=O)ccn2)ccc1OC(F)(F)F` [compound 11] gave an inhibition at 0.01 µM ([1]; 10 nM) of -4%, an inhibition at 0.1 µM ([1]; 100 nM) of 0% and an inhibition at 1 µM ([1]; 1000 nM) of 7%. The inhibition at 0.01 µM ([2]; 10 nM) was -7%, the inhibition at 0.1 µM ([2]; 100 nM) was 1% and the inhibition at 1 µM ([2]; 1000 nM) was 0%.
